Data reported in ChEMBL document CHEMBL1132914, “4-[(8-Alkyl-8-azabicyclo[3.2.1]octyl-3-yl)-3-arylanilino]-N,N-diethylbenzamides: high affinity, selective ligands for the delta opioid receptor illustrate factors important to antagonist activity” (Bioorg Med Chem Lett, 2000).

Key:
[1] = species on record: Cavia porcellus; experiment: Percent stimulation of [35S]GTP-gamma-S, binding by the compound (10 uM) in guinea pig caudate membranes for unblocked condition; format: functional
[2] = species on record: Cavia porcellus; experiment: Percent stimulation of [35S]GTP-gamma-S, binding by the compound in guinea pig caudate membranes for unblocked condition; format: functional, organism-based

C=CCN1[C@@H]2CC[C@H]1C[C@@H](N(c1ccc(C(=O)N(CC)CC)cc1)c1cccc(OC)c1)C2
Stimulation [1]: 46%

C/C=C\CN1C2CCC1CC(N(c1ccc(C(=O)N(CC)CC)cc1)c1cccc(OC)c1)C2 (stereo not given)
Stimulation [1]: 37%

C=CCN1[C@@H]2CC[C@H]1C[C@@H](N(c1ccc(C(=O)N(CC)CC)cc1)c1cccc(O)c1)C2
Stimulation [1]: 79%

C=CCN1C[C@H](C)N([C@H](c2ccc(C(=O)N(CC)CC)cc2)c2cccc(OC)c2)C[C@H]1C
Stimulation [2]: 102%

CCN(CC)C(=O)c1ccc(N(c2cccc(OC)c2)[C@H]2C[C@H]3CC[C@@H](C2)N3CC=C(C)C)cc1
Stimulation [1]: 29%
